Experiment [1] has as its system knock-out mutant of wis1 (JM544). The experiment in a line: Growth (cell number) of wis1 knock-out mutant. In kind it is cell-based, Schizosaccharomyces pombe. Particulars: for inhibition of the activity of Wis1 kinase, concluded from effects on knock-out mutants: conclusion from growth of knock-out mutants; for cell number: Table 5, wis1 knock-out, miconazole 3 ug/mL. As for the experimental part: To investigate the effect of protoberberine derivatives on the growth of cells, the cells of each strain were cultured in rich medium YE^AU to exponential phase(5×10^7 cells/mL). […]

In another experiment the target is T1, Wis1 kinase (Schizosaccharomyces pombe, UniProt P33886).
T1 construct: The genes wis1 and spc1 were cloned into the pRep1 vector containing nmt1 promoter; made in house; host or cells: Schizosaccharomyces pombe KGY246 (pRep1 vector, nmt1 promoter)
T1 sequence (P33886 1-605): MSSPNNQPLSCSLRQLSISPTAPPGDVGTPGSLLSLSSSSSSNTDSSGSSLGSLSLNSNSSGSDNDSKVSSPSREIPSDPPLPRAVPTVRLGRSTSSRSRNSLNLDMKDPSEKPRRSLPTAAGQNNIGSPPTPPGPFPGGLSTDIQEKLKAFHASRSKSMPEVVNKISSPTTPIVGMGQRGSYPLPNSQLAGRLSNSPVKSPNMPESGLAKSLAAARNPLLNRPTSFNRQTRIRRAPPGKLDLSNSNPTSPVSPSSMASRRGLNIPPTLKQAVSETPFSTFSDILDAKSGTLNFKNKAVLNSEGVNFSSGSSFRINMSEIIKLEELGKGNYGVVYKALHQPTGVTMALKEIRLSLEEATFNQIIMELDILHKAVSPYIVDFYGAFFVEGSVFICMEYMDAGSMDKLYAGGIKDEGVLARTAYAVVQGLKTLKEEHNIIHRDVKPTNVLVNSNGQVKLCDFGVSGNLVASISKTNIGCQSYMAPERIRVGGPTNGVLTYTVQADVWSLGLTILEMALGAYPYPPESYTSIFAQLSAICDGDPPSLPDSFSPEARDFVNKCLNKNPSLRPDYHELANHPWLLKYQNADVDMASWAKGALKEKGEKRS
In words: Wis1 kinase activity and autophosphorylation ([γ-32P]ATP, SDS-PAGE, FIG. 2). In kind it is biochemical. Particulars: purified GST-Wis1, kinase reaction 30° C. 30 minutes, autophosphorylation also measured. Here is the method:
The genes wis1 and spc1 were cloned into the pRep1 vector containing nmt1 promoter of which expression was inhibited by thiamin in the medium and able to tag GST. The KGY246 cells, wild type Schizosaccharomyces pombe cells were transformed with this plasmid. The expression of Wis1 and Spc1 kinase tagged with GST was induced by the cultivation of the transformed cells in MM^AU medium containing 0.4 mM thiamin followed by cultivation to exponential phase(5×10^6 cells) for about 20 hours in 100 mL of MM^AU medium in which thiamin was withdrawn. After osmotic shock(0.6M KCl) and oxidative stress were given to the cells expressing Wis1 and Spc1 tagged with GST for 25 minutes, cells were recovered at 4° C., washed with ice-cold PBS/NaF(50 mM)/NaN3(1 mM) buffer and HB buffer(25 mM HEPES, pH 7.5, 60 mM β-glycerophosphate, 15 mM EGTA, 0.1 mM Na vanadate, 0.1% triton and hydrolyzed using glass bead and bead beater purchased from Sigma. The supernatant of hydrolyzed cells was incubated with 100 mM NaCl for salting-out to remove unnecessary proteins. After the supernatant was incubated with 0.045 g/ml GST beads for 1.5 hours, proteins not bound to GST beads were removed. Purified Wis1 and Spc1 kinases were separated on 7% SDS-PAGE and the degree of purification was confirmed by western blotting using GST antibody.
Before Wis1 and Spc1 kinases purified in example 4 were analyzed, they were pre-incubated in analyzing buffer of kinase (50 mM Tris-Cl pH7.4, 20 mM MgCl2, 5 mM EGTA, 2 mM Na vanadate, 1 mM DTT). The kinase reaction was performed at 30° C. for 30 minutes in the presence of 1 mg/ml myelin basic protein(MBP), 1 mM ATP and 20 uCi of [γ-^32p]ATP and then terminated by adding SDS sample buffer and heating at 90° C. for 5 minutes. The reaction mixtures were separated on SDS-polyacrylamide gel electrophoresis. After fixation with 10% acetic acid: 10% methanol and drying, the gel was exposed on X-ray film. When Wis1 is activated by stimulus, it also activates autophosphorylation. Therefore, the degree of Wis1 autophosphorylation was also measured.

For experiment [2], the system named is knock-out mutant of spc1 (KS1366). In words: Growth (cell number) of spc1 knock-out mutant. The experiment is classed as cell-based, Schizosaccharomyces pombe. Conditions: Table 6, spc1 knock-out, miconazole 3 ug/mL. Here is the method: To investigate the effect of protoberberine derivatives on the growth of cells, the cells of each strain were cultured in rich medium YE^AU to exponential phase(5×10^7 cells/mL). […] Then cell number was measured every 3 hours.

Experiment [3] deals with knock-out mutant of spm1 in Mhk1-Spm1 pathway (TZs69). The experiment in a line: Growth (cell number) of spm1 knock-out mutant. In kind it is cell-based, Schizosaccharomyces pombe. Conditions: Table 4, spm1 knock-out, miconazole 3 ug/mL. Here is the method: (§1) To investigate the effect of protoberberine derivatives on the growth of cells, the cells of each strain were cultured in rich medium YE^AU to exponential phase(5×10^7 cells/mL). These cells were transferred to YE^AU medium and cultured for 12 hours. Then cell number was measured every 3 hours.

For experiment [4], the system named is knock-out mutant of byr2 in Ras-Byr2 pathway (SPSU). In words: Growth (cell number) of byr2 knock-out mutant. In kind it is cell-based, Schizosaccharomyces pombe. Particulars: Table 3, byr2 knock-out, miconazole 3 ug/mL. As for the experimental part: as §1

Molecules are shown by their SMILES.

Take `COc1ccc2c(Cc3c(F)c(F)c(F)c(F)c3F)c3[n+](cc2c1OC)CCc1cc2c(cc1-3)OCO2` [13-(2,3,4,5,6-pentafluorobenzyl)berberine chloride]: in experiment [1], the “inhibition of the activity of Wis1 kinase, concluded from effects on knock-out mutants” value (from here on “inhibition … on knock-out mutants”) was “inhibited”. In addition, the “inhibition of Wis1 kinase activity (in words)” value (from here on “inhibition … (in words)”) at Wis1 kinase is reported as “directly inhibited”.
For `COc1ccc2c(Cc3c(F)c(F)c(C(F)(F)F)c(F)c3F)c3[n+](cc2c1OC)CCc1cc2c(cc1-3)OCO2.[Cl-]` [13-(2,3,5,6-tetrafluoro-4-trifluoromethylbenzyl)berberine chloride], the “inhibition … on knock-out mutants” value in experiment [1] is “inhibited”. The “inhibition … (in words)” value on Wis1 kinase is reported as “directly inhibited”.
On the same counts, the results for `COc1ccc2c(Cc3cccc(Cl)c3Cl)c3[n+](cc2c1OC)CCc1cc2c(cc1-3)OCO2.[Cl-]` [13-(2,3-dichlorobenzyl)berberine chloride] are “inhibited” and “directly inhibited”.
The corresponding values for `COc1ccc2c(Cc3ccc(C)cc3C)c3[n+](cc2c1OC)CCc1cc2c(cc1-3)OCO2.[Cl-]` [13-(2,4-dimethylbenzyl)berberine chloride] are “inhibited” and “directly inhibited”.
The corresponding values for `COc1ccc2c(Cc3c(F)cccc3Cl)c3[n+](cc2c1OC)CCc1cc2c(cc1-3)OCO2` [13-(2-chloro-6-fluorobenzyl)berberine chloride] are “inhibited” and “directly inhibited”.
As to `COc1ccc2c(Cc3cccc(Br)c3)c3[n+](cc2c1OC)CCc1cc2c(cc1-3)OCO2` [13-(3-bromobenzyl)berberine iodide], the “inhibition … on knock-out mutants” value in experiment [1] was “inhibited”. Besides, the “inhibition … (in words)” value against Wis1 kinase is reported as “directly inhibited”.
On the same counts, the results for `COc1ccc2c(Cc3cccc(C(F)(F)F)c3)c3[n+](cc2c1OC)CCc1cc2c(cc1-3)OCO2.[Cl-]` [13-(3-trifluoromethylbenzyl)berberine chloride] are “inhibited” and “directly inhibited”.
The corresponding values for `COc1ccc2c(Cc3ccc(Cl)cc3)c3[n+](cc2c1OC)CCc1cc2c(cc1-3)OCO2.[I-]` [13-(4-chlorobenzyl)berberine iodide] are “inhibited” and “directly inhibited”.
For the compound `COc1ccc2c(Cc3ccc(F)cc3C(F)(F)F)c3[n+](cc2c1OC)CCc1cc2c(cc1-3)OCO2.[Cl-]` [13-(4-fluoro-2-trifluoromethylbenzyl)berberine chloride], the “inhibition … on knock-out mutants” value in experiment [1] is on record as “inhibited”. Further, the “inhibition … (in words)” value against Wis1 kinase is “directly inhibited”.
The corresponding values for `COc1ccc2c(Cc3ccc(C(C)C)cc3)c3[n+](cc2c1OC)CCc1cc2c(cc1-3)OCO2.[Cl-]` [13-(4-i-propylbenzyl)berberine chloride] are “inhibited” and “directly inhibited”.
The corresponding values for `COc1ccc(Cc2c3[n+](cc4c(OC)c(OC)ccc24)CCc2cc4c(cc2-3)OCO4)cc1` [13-(4-methoxybenzyl)berberine chloride] are “inhibited” and “directly inhibited”.
`COC(=O)c1ccc(Cc2c3[n+](cc4c(OC)c(OC)ccc24)CCc2cc4c(cc2-3)OCO4)cc1` [13-(4-methoxycarbonylbenzyl)berberine chloride]: in experiment [1], the “inhibition … on knock-out mutants” value was “inhibited”. In addition, at Wis1 kinase, the “inhibition … (in words)” value is “directly inhibited”.
On the same counts, the results for `COc1ccc2c(Cc3ccc(C)c([N+](=O)[O-])c3)c3[n+](cc2c1OC)CCc1cc2c(cc1-3)OCO2.[Cl-]` [13-(4-methyl-3-nitrobenzyl)berberine chloride] are “inhibited” and “directly inhibited”.
The corresponding values for `COc1ccc2c(Cc3ccc(C)cc3)c3[n+](cc2c1OC)CCc1cc2c(cc1-3)OCO2.[Cl-]` [13-(4-methylbenzyl)berberine chloride] are “inhibited” and “directly inhibited”.
Turning to `COc1ccc2c(Cc3ccc(OC(F)(F)F)cc3)c3[n+](cc2c1OC)CCc1cc2c(cc1-3)OCO2.[Cl-]` [13-(4-trifluoromethoxybenzyl)berberine chloride], the “inhibition … on knock-out mutants” value in experiment [1] is “inhibited”. At Wis1 kinase, the “inhibition … (in words)” value is listed as “directly inhibited”.
On the same counts, the results for `COc1ccc2c(Cc3ccccc3)c3[n+](cc2c1OC)CCc1cc2c(cc1-3)OCO2.[I-]` [13-benzylberberine iodide] are “inhibited” and “directly inhibited”.
Regarding `Clc1ccc(COC(Cn2ccnc2)c2ccc(Cl)cc2Cl)c(Cl)c1` (stereo not shown) [miconazole, reference compound], the cell number in experiment [1] (time 12) is given as 35; in experiment [1] (time 15), 37; in experiment [1] (time 18), 25; in experiment [1] (time 21), 19; in experiment [1] (time 24), 12; in experiment [2] (time 12), 15. Besides, the cell number in experiment [2] (time 15) was 9; in experiment [2] (time 18), 12; in experiment [2] (time 21) it was 18; in experiment [2] (time 24) it was 17; in experiment [3] (time 12), 28; in experiment [3] (time 15), 27. For the same compound, the cell number in experiment [3] (time 18) is 23; in experiment [3] (time 21) it was 34; in experiment [3] (time 24) it was 26; in experiment [4] (time 12) it was 32; in experiment [4] (time 15) it was 19; in experiment [4] (time 18), 31. Besides, the cell number in experiment [4] (time 21) amounted to 30; in experiment [4] (time 24), 27.

The values are drawn from patent publication US20040029910A1, “Protoberberine derivatives which inhibit activity of the mitogen-activated protein kinase” (priority 2000, published 2004).
